ChEMBL document CHEMBL1201862, “PubChem BioAssay data set” (2004)
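Dose response: 5 concentrations. Exposure: 48 h. Format: 96-well plates. Endpoint: linear interpolation; highest concentration if not reached. Here, GI50 denotes the concentration required for 50% inhibition of growth.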 The source made the active and inactive calls. Cut-off read from the data, not from the text of the source: active = GI50 up to about 1.1 µM and inactive = higher.

Tests used:
Test in all cases: inhibition of tumour cell growth, NCI panel, 48 h
[1] = tested on: A549
[2] = tested on: ACHN
[3] = tested on: HCT-15
[4] = tested on: HOP-92
[5] = tested on: HT-29
[6] = tested on: K562
[7] = tested on: M14
[8] = tested on: Malme-3M
[9] = tested on: NCI-H23
[10] = tested on: OVCAR-4
[11] = tested on: OVCAR-5
[12] = tested on: OVCAR-8
[13] = tested on: SF-295
[14] = tested on: SK-MEL-28
[15] = tested on: SK-MEL-5
[16] = tested on: SW-620
[17] = tested on: MOLT-4
[18] = tested on: RPMI-8226

SMILES | GI50 [1] | GI50 [2] | GI50 [3] [µM] | GI50 [4] | GI50 [5] | GI50 [6] | GI50 [7] | GI50 [8] | GI50 [9] | GI50 [10] | GI50 [11] | GI50 [12] | GI50 [13] | GI50 [14] | GI50 [15] | GI50 [16] | GI50 [17] | GI50 [18]
Cn1cc(NC(=O)c2cc(NC(=O)CCCCCCC(=O)Nc3cc(C(=O)Nc4cc(C(=O)NCCC(=N)N)n(C)c4)n(C)c3)cn2C)cc1C(=O)NCCC(=N)N | 7.29 µM (inactive) | 8.85 µM (inactive) | 32 | > 100 µM (inactive) | 73.6 µM (inactive) | 5.35 µM (inactive) | 16 µM (inactive) | 2.67 µM (inactive) | 3.91 µM (inactive) | 36.1 µM (inactive) | > 100 µM (inactive) | 16.3 µM (inactive) | 25.9 µM (inactive) | 4.22 µM (inactive) | 1.92 µM (inactive) | 29.7 µM (inactive) |  | 
COc1ccc(-c2cc(C(=O)Nc3ccc(C)c(C)c3)nc(NC#N)n2)cc1 | > 100 µM (inactive) | > 100 µM (inactive) | > 100 |  | > 100 µM (inactive) | > 100 µM (inactive) | > 100 µM (inactive) | > 100 µM (inactive) | > 100 µM (inactive) | > 100 µM (inactive) | > 100 µM (inactive) | > 100 µM (inactive) |  | > 100 µM (inactive) | > 100 µM (inactive) | > 100 µM (inactive) | > 100 µM (inactive) | > 100 µM (inactive)
N#Cc1cccc(-n2[nH]c(=O)ccc2=O)c1 | > 100 µM (inactive) | > 100 µM (inactive) | > 100 | > 100 µM (inactive) | > 100 µM (inactive) | > 100 µM (inactive) | > 100 µM (inactive) | > 100 µM (inactive) | > 100 µM (inactive) | > 100 µM (inactive) | > 100 µM (inactive) | > 100 µM (inactive) | > 100 µM (inactive) | > 100 µM (inactive) | > 100 µM (inactive) | > 100 µM (inactive) | > 100 µM (inactive) | > 100 µM (inactive)
COc1cc(CC2C(=O)OCC2[C@@H](OC(C)=O)c2ccc3c(c2)OCO3)c(Br)c(OC)c1OC (stereo partly specified) | 39.4 µM (inactive) | 99.8 µM (inactive) | 19.1 | 12 µM (inactive) | 35.9 µM (inactive) |  | 50.9 µM (inactive) | 37.9 µM (inactive) | 68.9 µM (inactive) | 90.6 µM (inactive) |  | > 100 µM (inactive) | 33.1 µM (inactive) | 73.3 µM (inactive) | 30.9 µM (inactive) | 58.3 µM (inactive) | 35.2 µM (inactive) | 
Cc1ccc(C(=O)O)cc1NC(=O)c1cc(/C=C/c2ccccc2)[nH]c(=S)n1 | > 65.8 µM (inactive) | > 89.9 µM (inactive) | > 45 | > 100 µM (inactive) | > 64.4 µM (inactive) | > 54.8 µM (inactive) | > 100 µM (inactive) | > 100 µM (inactive) | > 100 µM (inactive) | > 100 µM (inactive) | > 100 µM (inactive) | > 100 µM (inactive) | > 100 µM (inactive) | > 100 µM (inactive) | > 100 µM (inactive) | > 28.9 µM (inactive) | > 100 µM (inactive) | > 44.1 µM (inactive)
COc1cc2nncc(Sc3cnnc4ccccc34)c2cc1OC | 25.5 µM (inactive) | 20.1 µM (inactive) | 24.7 | 6.14 µM (inactive) | 21.6 µM (inactive) | 26 µM (inactive) | 18 µM (inactive) | 17.2 µM (inactive) | > 10 µM (inactive) | 10.1 µM (inactive) | 27 µM (inactive) |  | 26.9 µM (inactive) | 23 µM (inactive) | 14.2 µM (inactive) | 16.6 µM (inactive) | 22.2 µM (inactive) | 16.9 µM (inactive)
O=C(N/C=C/C=C/Sc1ccccc1)OCc1ccccc1 | 20.4 µM (inactive) | 27.2 µM (inactive) | 18.1 | 23.2 µM (inactive) | 17.5 µM (inactive) | 15.4 µM (inactive) | 18.5 µM (inactive) |  | 22.7 µM (inactive) | 21.7 µM (inactive) | 14.3 µM (inactive) | 15.7 µM (inactive) | 19.6 µM (inactive) | 18.7 µM (inactive) | 17.7 µM (inactive) | 17.7 µM (inactive) | 15.4 µM (inactive) | 18.7 µM (inactive)
C#CCn1c(=O)c2cccnc2n(CC#C)c1=O | > 100 µM (inactive) | > 100 µM (inactive) | > 100 | > 100 µM (inactive) | > 100 µM (inactive) |  | > 100 µM (inactive) | > 100 µM (inactive) | > 100 µM (inactive) | > 100 µM (inactive) | > 100 µM (inactive) |  | > 100 µM (inactive) | > 100 µM (inactive) | > 100 µM (inactive) | > 100 µM (inactive) | > 100 µM (inactive) | > 100 µM (inactive)
Cc1ccc(S(=O)(=O)C(C#N)c2nc3ccccc3nc2N2CCOCC2)cc1 (stereo unspecified) | 76 µM (inactive) | 30.3 µM (inactive) | 31 |  |  | > 10 µM (inactive) | 44.2 µM (inactive) | 27.5 µM (inactive) | 21.8 µM (inactive) | 20.5 µM (inactive) | > 100 µM (inactive) | > 10 µM (inactive) |  | 23.4 µM (inactive) | 48.8 µM (inactive) | 26.9 µM (inactive) | 19.2 µM (inactive) | 22 µM (inactive)
NNC(=O)C(=O)N/N=C1\CCCC1C(=O)CCC(=O)Nc1cccc(Cl)c1 (stereo unspecified) | > 100 µM (inactive) | > 100 µM (inactive) |  | > 100 µM (inactive) | > 100 µM (inactive) |  | > 100 µM (inactive) | > 100 µM (inactive) | > 100 µM (inactive) | > 100 µM (inactive) | > 100 µM (inactive) | > 100 µM (inactive) | > 100 µM (inactive) | > 100 µM (inactive) | > 100 µM (inactive) | > 100 µM (inactive) | > 100 µM (inactive) | > 100 µM (inactive)
O=Cc1c[nH]c2c(=O)[nH]cnc12 | > 100 µM (inactive) | > 100 µM (inactive) | > 100 | > 100 µM (inactive) | > 100 µM (inactive) | > 100 µM (inactive) | > 100 µM (inactive) | > 100 µM (inactive) | > 100 µM (inactive) |  |  | > 100 µM (inactive) | > 100 µM (inactive) | > 100 µM (inactive) | > 100 µM (inactive) | > 100 µM (inactive) | > 100 µM (inactive) | > 100 µM (inactive)
CCN(CC)CC1c2ccccc2C(CNc2ccccc2)N1C (stereo unspecified) | > 100 µM (inactive) | > 100 µM (inactive) | > 100 | 30.1 µM (inactive) |  | 57.8 µM (inactive) | > 100 µM (inactive) | > 100 µM (inactive) | > 100 µM (inactive) | > 100 µM (inactive) | > 100 µM (inactive) | > 100 µM (inactive) | > 100 µM (inactive) | > 100 µM (inactive) | > 100 µM (inactive) | > 100 µM (inactive) | 80.4 µM (inactive) | 80.7 µM (inactive)
C/C(=N\[N+](C)(C)C)C(c1ccccc1)C1(c2ccccc2)C(c2ccccc2)=C1c1ccccc1 (stereo unspecified) | > 100 µM (inactive) | 88.1 µM (inactive) | 36.9 | 50.9 µM (inactive) | > 100 µM (inactive) | > 100 µM (inactive) | > 100 µM (inactive) | > 100 µM (inactive) | > 100 µM (inactive) | > 100 µM (inactive) | > 100 µM (inactive) | 67.5 µM (inactive) | 41.1 µM (inactive) |  | > 100 µM (inactive) | > 100 µM (inactive) | > 100 µM (inactive) | > 100 µM (inactive)
CCN(CC)CCOC(c1ccccc1)c1ccccc1.CCOC(=O)Nc1ccc(S(=O)(=O)NCCCl)cc1.CCOC(=O)Nc1ccc(S(=O)(=O)NCCCl)cc1.Nc1ccc(C(=O)O)c(O)c1 | > 100 µM (inactive) | > 100 µM (inactive) | > 100 | > 100 µM (inactive) | > 100 µM (inactive) | > 100 µM (inactive) | > 100 µM (inactive) | > 100 µM (inactive) | > 100 µM (inactive) | > 100 µM (inactive) | > 100 µM (inactive) | > 100 µM (inactive) | > 100 µM (inactive) | > 100 µM (inactive) | > 100 µM (inactive) | > 100 µM (inactive) | > 100 µM (inactive) | 
O.O=C([O-])c1ccccc1Nc1ccccc1C(=O)[O-].[Zn+2] | 47.1 µM (inactive) | > 100 µM (inactive) | > 60 | 18.7 µM (inactive) | > 70.6 µM (inactive) | 28.9 µM (inactive) | 35.1 µM (inactive) | 23.2 µM (inactive) | 18.2 µM (inactive) | 19.8 µM (inactive) | 28.2 µM (inactive) | 26.9 µM (inactive) | 17.4 µM (inactive) | 19.9 µM (inactive) | 25.5 µM (inactive) | 23.6 µM (inactive) | 30.5 µM (inactive) | 48 µM (inactive)
Cc1oc2c(C)c3oc(=O)cc(C)c3cc2c1CNC(=O)[C@@H]1OCCOCCOCCOCCOCCOC1C(=O)O (stereo partly specified) | > 100 µM (inactive) | > 100 µM (inactive) | > 100 | > 100 µM (inactive) | > 100 µM (inactive) | > 100 µM (inactive) | 12.5 µM (inactive) | > 100 µM (inactive) | > 100 µM (inactive) | > 100 µM (inactive) | > 100 µM (inactive) | > 100 µM (inactive) | > 100 µM (inactive) |  | > 100 µM (inactive) | > 100 µM (inactive) | > 100 µM (inactive) | > 100 µM (inactive)
